Assay results from patent US6488933B2, “Preparations for the treatment of T cell mediated diseases” (Yeda Research and Development Co. Ltd., priority 1995, dated 2002).

How the values were obtained:
IDDM = conditions: mice, subcutaneously (sc) in an oil vehicle (IFA); cited from earlier work
autoimmune T cells = assay: p277(Val^6-Val^11)-peptide treatment: spontaneous T-cell responses and autoantibodies (summary statement); assay type: in vivo, mouse; conditions: peptide in an appropriate carrier
[1] = tested on: T cells reactive to the p277(Val^6-Val^11); assay: Cytokine profile of spleen cells of treated NOD mice, cytokine ELISA (Example 4); assay type: in vivo, mouse; conditions: spleen cells 5 weeks after treatment
Excerpt: Concanavalin A (ConA), a T-cell mitogen, was used to activate total splenic T-cells as a control.
Five weeks later, the spleens of the mice were removed and the spleen cells were pooled. […] The presence of the cytokines in the culture supernatants was quantitated by ELISA, using Pharmingen paired antibodies according to the Pharmingen cytokine ELISA protocol. Pharmingen recombinant mouse cytokines were used as standards for calibration curves. Briefly, flat-bottom 96-well microtiter plates were coated with rat anti-mouse cytokine mAbs for 18 h at 4° C., and the culture supernatants or recombinant mouse cytokines were added for 18 h at 4° C. The plates were washed, and biotinylated rat anti-mouse cytokine mAbs were added for 45 min at room temperature, then extensively washed, and avidin-alkaline phosphatase was added. The plates were washed, a chromogen substrate (p-nitrophenylphosphate) was added and samples were read at 405 nm in an ELISA reader. The concentrations of cytokines are shown as the OD readings. *P<0.01.

NOD mice = assay: Antibody isotypes induced by p277(Val^6-Val^11) therapy, isotype ELISA (Example 3); assay type: in vivo, mouse; conditions: NOD mice 3 months old, treated in oil, FIG. 2
Protocol: The sera of individual mice were assayed for the isotypes of their antibodies to p277(Val6-Val^11) after treatment (12-15 mice per group). The antibody isotypes were detected using an ELISA assay with isotype-specific developing antibody reagents (Southern Biotechnology Associates, Birmingham, Ala.). […] The columns in each experiment show results from equal numbers of mice; an apparent reduction in numbers of circles is caused by superimposition.

## p12: human hsp60 positions 166-185: EEIAQVATISANGDKEIGNI
IDDM
  Peptide therapy for treatment of IDDM: effective

## p32: human hsp60 positions 466-485: EIIKRTLKIPAMTIAXNAGV (EIIKRTLKIPAMTIAKNAGV)
IDDM
  Peptide therapy for treatment of IDDM: effective

## p277(Val^6-Val^11): SEQ ID NO 4, hsp60 437-460 with C-442 and C-447 changed to V: VLGGGVALLRVIPALDSLTPANED
Autoimmune T cells
  production of autoantibodies to hsp60, to GAD and to insulin: abolished
  spontaneous T-cell proliferative responses to epitopes of both hsp60 and GAD: down-regulated
  spontaneous T-cell response of the treated mice to a bacterial hsp60 peptide: remained in the TH1 mode
[1]; 24 h incubation with Con A, FIG. 3B
  IL-2 cytokine response to ConA: maintained
[1]; 24 h incubation, vs control mice (PBS in Intralipid), P<0.01, FIG. 3A
  IL-2 secretion in response to incubation with peptide p277(Val^6-Val^11): significantly less
[1]; 48 h incubation with Con A, FIG. 3B
  IFNγ cytokine response to ConA: maintained
[1]; 48 h incubation, vs control mice (PBS in Intralipid), P<0.01, FIG. 3A
  IFNγ secretion in response to incubation with peptide p277(Val^6-Val^11): significantly less
NOD mice
  TH1-type IgG2a antibodies: no TH1-type IgG2a antibodies induced
  isotypes of the anti-p277 antibodies developing after treatment: exclusively of the IgG1 and IgG2b classes

## p277: human hsp60 positions 437-460: VLGGGCALLRCIPALDSLTPANED
IDDM
  Peptide therapy for treatment of IDDM: effective
